Experiment [1] has as its system SOCE (store operated calcium entry) in CHO cells. Description: Assay of SOCE (store operated calcium entry)-inhibiting action. The class given is cell-based, Chinese hamster. Conditions: CHO cells, thapsigargin; for inhibition at 10 µM / inhibition at 30 µM / inhibition at 100 µM: Cricetulus griseus, CHO, read-out: SOCE level (percentage of inhibition). An outline of the steps:
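CHO cells in calcium-free BSS received compound, then 1 μM thapsigargin 2 min later to deplete stores; after 9 min, 2 mM calcium chloride (final) added. Percent inhibition of the rise in intracellular calcium determined at various compound concentrations.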

In experiment [2] the test system is IICR (IP3 induced calcium release) in CHO cells. Description: Assay of IICR (IP3 induced calcium release)-inhibiting action. In kind it is cell-based, Chinese hamster. Conditions: CHO cells, 10 μM ATP; for inhibition at 10 µM / inhibition at 30 µM / inhibition at 100 µM: Cricetulus griseus, CHO, read-out: IICR level (percentage of inhibition). An outline of the steps: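 Inhibition (%) of the intracellular calcium increase triggered by 10 μM ATP, measured in CHO cells in BSS with calcium. Compound given 1 min after the buffer exchange and 2 min before ATP; values reported per compound concentration.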

A word on the inhibition: it is how much of the control response was suppressed.

Consider `CC(C)N(CCC(=O)c1ccc(-c2ccccc2)cc1)Cc1ccccc1` [Example 297, 2-(N-isopropylbenzyl)aminoethyl-4-biphenylketone], for which the inhibition at 10 µM in experiment [1] (test compound 10 μmol) was found to be 20%; in experiment [2] (test compound 10 μmol), 50%. The inhibition at 30 µM in experiment [1] (test compound 30 μmol) and in experiment [2] (test compound 30 μmol) was 50% each time. Also, the inhibition at 100 µM was determined as 60% in experiment [1] (test compound 100 μmol) and 90% in experiment [2] (test compound 100 μmol).

Turning to `CC(C)N(CCO)CCC(=O)c1ccc(-c2ccccc2)cc1` [Example 298, 2-(N-2-hydroxyethylisopropyl)aminoethyl-4-biphenylketone], the results for the inhibition at 10 µM in experiment [1] (test compound 10 μmol) and in experiment [2] (test compound 10 μmol) were 20% and 60%, respectively. For the same molecule, the inhibition at 30 µM in experiment [1] (test compound 30 μmol) amounted to 40%; in experiment [2] (test compound 30 μmol), 50%. For the same molecule, the results for the inhibition at 100 µM in experiment [1] (test compound 100 μmol) and in experiment [2] (test compound 100 μmol) were 50% and 60%, respectively.

Regarding `O=C(CCN(CCO)c1ccccc1)c1ccc(-c2ccccc2)cc1` [Example 299, 2-(N-2-hydroxyethylphenyl)aminoethyl-4-biphenylketone], the inhibition at 10 µM in experiment [1] (test compound 10 μmol) was found to be 20%; in experiment [2] (test compound 10 μmol) it was 70%. Besides, the inhibition at 30 µM in experiment [1] (test compound 30 μmol) worked out at 40%; in experiment [2] (test compound 30 μmol), 30%. For the same molecule, the inhibition at 100 µM in experiment [1] (test compound 100 μmol) was 40%; in experiment [2] (test compound 100 μmol), 30%.

For `O=C(CCNCCc1ccccc1)c1ccco1` [Example 300, 2-(N-phenethyl)aminoethyl-2-furylketone], the results for the inhibition at 30 µM in experiment [1] (test compound 30 μmol) and in experiment [2] (test compound 30 μmol) were 20% and 0%, respectively. Besides, the inhibition at 100 µM is 40% in experiment [1] (test compound 100 μmol) and 10% in experiment [2] (test compound 100 μmol). Moreover, in experiment [2] (test compound 10 μmol), the inhibition at 10 µM came to 30%.

As for `CCN(CCC(=O)c1ccc(Br)s1)Cc1ccccc1` [Example 301, 2-(N-ethylbenzyl)aminoethyl-5-bromo-2-thienylketone], the values for the inhibition at 10 µM in experiment [1] (test compound 10 μmol) and in experiment [2] (test compound 10 μmol) were 20% and 70%, respectively. Moreover, the inhibition at 30 µM in experiment [1] (test compound 30 μmol) stood at 30%; in experiment [2] (test compound 30 μmol), 70%. In addition, the values for the inhibition at 100 µM in experiment [1] (test compound 100 μmol) and in experiment [2] (test compound 100 μmol) were 40% and 90%, respectively.

Consider `CC(C)(C)N(CCC(=O)c1ccc(C#N)cc1)Cc1ccccc1` [Example 302, 2-(N-t-butylbenzyl)aminoethyl-4-cyanophenylketone], for which the inhibition at 10 µM in experiment [1] (test compound 10 μmol) is 0%. Besides, the inhibition at 30 µM in experiment [1] (test compound 30 μmol) was found to be 0%; in experiment [2] (test compound 30 μmol) it was 90%. For the same molecule, the inhibition at 100 µM in experiment [1] (test compound 100 μmol) worked out at 20%. In addition, the “IICR level (percentage of inhibition)” value in experiment [2] (test compound 10 μmol) is 60%.

In the case of `Cc1ccc(C(=O)CCN(Cc2ccccc2)C(C)(C)C)cc1` [Example 303, 4-tolyl(N-benzyl-N-t-butyl)aminoethylketone], the results for the inhibition at 10 µM in experiment [1] (test compound 10 μmol) and in experiment [2] (test compound 10 μmol) were 0% and 20%, respectively. Besides, the values for the inhibition at 30 µM in experiment [1] (test compound 30 μmol) and in experiment [2] (test compound 30 μmol) were 0% and 20%, respectively. The inhibition at 100 µM in experiment [1] (test compound 100 μmol) came to 0%; in experiment [2] (test compound 100 μmol), 40%.

For `CC(C)(C)N(CCC(=O)c1ccc(C#N)cc1)Cc1ccccc1` [Example 304, 4-cyanophenyl(N-benzyl-N-t-butyl)aminoethylketone], the “SOCE level (percentage of inhibition)” value was determined as 0% in experiment [1] (test compound 10 μmol), 0% in experiment [1] (test compound 30 μmol) and 10% in experiment [1] (test compound 100 μmol). In addition, the “IICR level (percentage of inhibition)” value in experiment [2] (test compound 10 μmol) is 90%; in experiment [2] (test compound 30 μmol), 100%; in experiment [2] (test compound 100 μmol), 20%.

Turning to `CC(C)(C)N(CCC(=O)c1ccc(Cl)cc1)Cc1ccccc1` [Example 305, 2-(N-t-butyl-N-benzyl)aminoethyl-4-chlorophenylketone], the inhibition at 10 µM in experiment [1] (test compound 10 μmol) is 20%; in experiment [2] (test compound 10 μmol) it was 60%. Further, the values for the inhibition at 30 µM in experiment [1] (test compound 30 μmol) and in experiment [2] (test compound 30 μmol) were 20% and 70%, respectively. Besides, the inhibition at 100 µM in experiment [1] (test compound 100 μmol) worked out at 60%; in experiment [2] (test compound 100 μmol) it was 50%.

For the molecule `Cc1ccc(C(=O)CCNCCO)s1` [Example 306, 2-(N-hydroxyethyl)aminoethyl-5-methyl-2-thienylketone], the inhibition at 10 µM was 10% in experiment [1] (test compound 10 μmol) and 50% in experiment [2] (test compound 10 μmol). Further, the inhibition at 30 µM in experiment [1] (test compound 30 μmol) and in experiment [2] (test compound 30 μmol) was 20% in each case. In addition, the inhibition at 100 µM in experiment [1] (test compound 100 μmol) and in experiment [2] (test compound 100 μmol) was 30% in each case.

As to `O=C(CCNCCO)c1ccc(Br)s1` [Example 307, 2-(N-hydroxyethyl)aminoethyl-5-bromo-2-thienylketone], the inhibition at 10 µM in experiment [1] (test compound 10 μmol) amounted to 0%. Besides, the “SOCE level (percentage of inhibition)” value in experiment [1] (test compound 30 μmol) and in experiment [1] (test compound 100 μmol) was 10% throughout. For the same molecule, the “IICR level (percentage of inhibition)” value came to 30% in experiment [2] (test compound 10 μmol), 20% in experiment [2] (test compound 30 μmol) and 30% in experiment [2] (test compound 100 μmol).

For the molecule `CC(C)N(CCC(=O)c1ccc(C#N)cc1)Cc1ccccc1` [Example 308, 2-(N-benzylisopropyl)aminoethyl-4-cyanophenylketone], the inhibition at 10 µM in experiment [1] (test compound 10 μmol) was 0%; in experiment [2] (test compound 10 μmol), 90%. For the same molecule, the inhibition at 30 µM in experiment [1] (test compound 30 μmol) came out at 0%; in experiment [2] (test compound 30 μmol), 100%. For the same molecule, the inhibition at 100 µM in experiment [1] (test compound 100 μmol) amounted to 10%; in experiment [2] (test compound 100 μmol), 95%.

On to `CC(C)N(CCO)CCC(=O)c1ccc(C#N)cc1` [Example 309, 2-(N-hydroxylethylisopropyl)aminoethyl-4-cyanophenylketone], for which the inhibition at 10 µM in experiment [1] (test compound 10 μmol) and in experiment [2] (test compound 10 μmol) was 0% in each case. For the same molecule, the inhibition at 30 µM in experiment [1] (test compound 30 μmol) and in experiment [2] (test compound 30 μmol) was 0% throughout. Moreover, the inhibition at 100 µM in experiment [1] (test compound 100 μmol) was 10%; in experiment [2] (test compound 100 μmol), 20%.

As for `CC(C)N(CCC(=O)c1ccc(Cl)cc1)Cc1ccccc1` [Example 310, 2-(N-benzylisopropyl)aminoethyl-4-chloro-phenylketone], the inhibition at 10 µM in experiment [1] (test compound 10 μmol) came to 0%; in experiment [2] (test compound 10 μmol) it was 80%. The inhibition at 30 µM in experiment [1] (test compound 30 μmol) stood at 0%; in experiment [2] (test compound 30 μmol), 80%. In addition, the inhibition at 100 µM in experiment [1] (test compound 100 μmol) was determined as 10%; in experiment [2] (test compound 100 μmol) it was 70%.

For `CC(C)N(CCO)CCC(=O)c1ccc(Cl)cc1` [Example 311, 2-(N-hydroxyethylisopropyl)aminoethyl-4-chloro-phenylketone], the inhibition at 10 µM stood at 0% in experiment [1] (test compound 10 μmol) and 50% in experiment [2] (test compound 10 μmol). Besides, the inhibition at 30 µM in experiment [1] (test compound 30 μmol) amounted to 0%; in experiment [2] (test compound 30 μmol) it was 30%. Also, the figures for the inhibition at 100 µM in experiment [1] (test compound 100 μmol) and in experiment [2] (test compound 100 μmol) were 10% and 50%, respectively.

`CC(C)N(CCO)CCC(=O)c1ccccc1` [Example 312, 2-(N-hydroxyethylisopropyl)aminoethylphenylketone]: the inhibition at 10 µM in experiment [1] (test compound 10 μmol) turned out to be 0%; in experiment [2] (test compound 10 μmol), 20%. The inhibition at 30 µM in experiment [1] (test compound 30 μmol) came out at 0%; in experiment [2] (test compound 30 μmol) it was 20%. Moreover, the figures for the inhibition at 100 µM in experiment [1] (test compound 100 μmol) and in experiment [2] (test compound 100 μmol) were 10% and 80%, respectively.

For the molecule `CCN(CCC(=O)c1ccc(F)cc1)Cc1ccccc1` [Example 313, 2-(N-benzylethyl)aminoethyl-4-fluoro-phenylketone], the inhibition at 10 µM in experiment [1] (test compound 10 μmol) was 0%; in experiment [2] (test compound 10 μmol) it was 20%. Besides, the inhibition at 30 µM was determined as 0% in experiment [1] (test compound 30 μmol) and 20% in experiment [2] (test compound 30 μmol). Also, the inhibition at 100 µM in experiment [1] (test compound 100 μmol) and in experiment [2] (test compound 100 μmol) was 30% each time.

The values above are taken from US8937091B2 (Japan Science and Technology Agency, priority 2009, dated 2015).
